The values that follow come from patent US20040116336A1, “Peptide derivatives” (priority 2002, published 2004).

Experiment [1] deals with T1, APJ (Homo sapiens, UniProt P35414).
T1 construct: expressed in transfected cells; host or cells: CHO (CHO-A10; clone 6 for the cAMP assay)
T1 sequence (P35414 1-380): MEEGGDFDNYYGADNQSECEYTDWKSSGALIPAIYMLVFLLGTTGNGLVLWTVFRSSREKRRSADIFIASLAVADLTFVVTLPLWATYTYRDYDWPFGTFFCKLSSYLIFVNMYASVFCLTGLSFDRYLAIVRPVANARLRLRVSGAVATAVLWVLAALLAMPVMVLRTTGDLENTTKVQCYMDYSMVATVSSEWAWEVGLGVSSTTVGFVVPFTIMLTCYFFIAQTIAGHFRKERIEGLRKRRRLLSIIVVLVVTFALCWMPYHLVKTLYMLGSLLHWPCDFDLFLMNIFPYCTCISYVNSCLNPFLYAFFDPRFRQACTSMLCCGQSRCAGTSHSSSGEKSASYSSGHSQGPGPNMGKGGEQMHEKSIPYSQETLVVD
Briefly: Inhibitory activity on forskolin-stimulated cAMP production in CHO-A10 clone 6 cells. Format: cell-based. To be noted: read-out: EC50.

For experiment [2], the target named is T1, APJ. Briefly: Receptor binding assay-2 (compound in Reference Example 2 used). To be noted: compound in Reference Example 2 used as ligand; read-out: IC50.
For experiment [3], the target named is T1, APJ. In words: Receptor binding assay-1 (125I-labeled compound in Reference Example 1, CHO-A10 membrane fraction). To be noted: 125I-labeled compound in Reference Example 1 at 100 pM, room temperature […]. The protocol:
This product was mixed with an equal volume of an assay buffer (50 mM Tris-HCl/pH 7.5, 5 mM EDTA, 0.5 mM PMSF, 20 μg/ml leupeptin, 0.1 μg/ml pepstatin A, 4 μg/ml E-64 (Peptide Research Laboratory, Co.), 0.1% bovine serum albumin) and stored at −30° C. before use.
CHO-A10 cells were cultured, recovered with PBS containing 5 mM EDTA from a culture vessel, and suspended in the above-mentioned assay buffer not containing bovine serum albumin. The cells were homogenized 3 times at 12,000 rpm for 15 seconds by a Polytron homogenizer (manufactured by Kinematica Inc.) and then centrifuged (1000×g, 4° C., 10 minutes), and the supernatant was recovered. The precipitates were subjected again to the same procedure as above, and the respective supernatants were combined and centrifuged at 100,000×g, 4° C. for 1 hour, to recover precipitates (membrane fraction). The membrane fraction was suspended again in a small amount of the buffer, homogenized with a Teflon homogenizer and stored at −80° C. before use.
Binding assay was carried out under the following conditions. […] Measurement of non-specific binding was carried out using a well containing 1 μM unlabeled compound in place of the test sample. After the incubation was finished, a cell harvester (Packard) adapted to 96 wells and a filter unit (GF/C, Packard) were used for separation thereby capturing the membrane fraction on the filter. After the filter was sufficiently dried, Microcinti 0 (Packard) was added thereto, and using Top Count (Packard), the amount of the labeled material captured together with the membrane fraction on the filter was measured.

Regarding `CSCC[C@H](NC(=O)[C@@H]1CCCN1C(=O)CNC(=O)[C@H](CCCCN)NC(=O)[C@H](Cc1c[nH]cn1)NC(=O)[C@H](CO)NC(=O)[C@H](CC(C)C)NC(=O)[C@H](CCCNC(=N)N)NC(=O)[C@@H]1CCCN1C(=O)[C@H](CCCNC(=N)N)NC(=O)[C@H](C)NC(=O)[C@H](CCCNC(=N)N)NC(=O)[C@@H](N)CCCNC(=N)N)C(=O)N1CCC[C@H]1C(=O)N[C@@H](Cc1ccccc1)C(=O)O` [Compound in Ex. 25], on APJ [1], the concentration giving a half-maximal response (EC50) came out at 250 pM. Also, the 50% inhibitory concentration (IC50) at APJ [2] came to 67 pM; at APJ [3], 34000 pM.

In the case of H-RPRLSARGPMPF-OH [Compound in Ex. 24], the EC50 at APJ [1] is 250 pM. Besides, the figures for the IC50 on APJ [2] and at APJ [3] were 57 pM and 27000 pM, respectively.
